Assay results published in patent publication US20040063686A1, “Carboxamide compounds and their use as antagonists of a human 11cby receptor” (priority 2000, published 2004).

target: T1, 11CBy receptors (Homo sapiens, UniProt Q99705); test: Radioligand binding assay, [125I]-Melanin Concentrating Hormone competition on membranes from HEK293 cells stably expressing 11CBy receptors; conditions: [125I]-MCH 0.22 nM, 45 min at 37° C., pH 7.4, pKi calculated from IC50
T1 construct: expressed in transfected cells; washed membranes
T1 sequence (Q99705 whole entry): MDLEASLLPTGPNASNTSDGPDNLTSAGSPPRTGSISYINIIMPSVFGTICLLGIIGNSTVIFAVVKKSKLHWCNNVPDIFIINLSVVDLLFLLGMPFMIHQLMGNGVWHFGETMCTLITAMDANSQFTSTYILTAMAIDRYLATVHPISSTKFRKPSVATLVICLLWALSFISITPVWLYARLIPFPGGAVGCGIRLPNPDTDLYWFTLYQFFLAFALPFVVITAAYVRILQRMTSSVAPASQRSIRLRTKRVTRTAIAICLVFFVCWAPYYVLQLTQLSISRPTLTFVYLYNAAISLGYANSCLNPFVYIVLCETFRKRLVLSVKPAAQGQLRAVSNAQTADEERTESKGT
Procedure: The activity of the compounds used in this invention may be assessed by competitive binding assays to 11CBy receptors, as follows:
Radioligand Binding Studies
Radioligand binding assays were carried out on well washed membranes from HEK293 cells stably expressing 11CBy receptors. […] Non-specific binding was defined using 0.1 mM Melanin Concentrating Hormone (obtained from Bachem). The test compounds were added at concentrations between […] and 10 pM in 10 concentration steps. Following incubation, the reaction was stopped by filtration through GF/B filters and washed with 4×1 ml of ice-cold 50 mM Tris buffer. Microscint 20 (Packard) was added to the filters and the radioactivity measured using a Packard TopCount.
Bound cpm in the presence of test compound was expressed as a fraction of the bound cpm in the absence of test compound and plotted against the concentration of compound. From this an IC50 was determined from which the pKi was calculated.

With “Biphenyl-4-carboxylic acid [4-((R)-diethylamino-hydroxy-propoxy)-3-methoxy-phenyl]-amide [Example G1]” the pKi range was 7.1-7.4.

same assay, conditions: [125I]-MCH 0.22 nM, 45 min at 37° C., pH 7.4, pKi calculated from IC50, read-out: pKi range (converted)

Compared with `COc1cc(NC(=O)c2ccc(C3CCCCC3)cc2)ccc1OC[C@@H]1CCCN1C` [Example A48], `COc1cc(NC(=O)c2ccc(C3CCCCC3)cc2)ccc1N1CCN(C)CC1` [Example H1, 4-Cyclohexyl-N-[3-methoxy-4-(4-methyl-piperazin-1-yl)-phenyl]-benzamide] is higher in Ki: 15.8 to 31.6 nM for the first, 39.8 to 79.4 nM for the second.

`COc1cc(NC(=O)c2ccc(-c3ccccc3)cc2Cl)ccc1OCCN(C(C)C)C(C)C` [Example C8] and `COc1cc(NC(=O)c2ccc(-c3ccccc3)nc2)ccc1OCCN(C(C)C)C(C)C` [Example F4] fall in the same range of Ki: 39.8 to 79.4 nM for the first, 39.8 to 79.4 nM for the second.

`CCN(CC)CCOc1ccc(N(C)C(=O)c2ccc(-c3ccccc3)cc2)cc1OC` [Example E9, Biphenyl-4-carboxylic acid [4-(2-diethylamino-ethoxy)-3-methoxy-phenyl]-methyl-amide] gave a Ki of 15.8 to 31.6 nM.
